Where two headings read alike, the source gives them in different places.
Assays:
[1] = set-up: method as in PMID 29170140; conditions: in humans; cited from earlier work
Pin1 [2] = biological target: T1, Pin1 (Homo sapiens, UniProt Q13526); conditions: known Pin1 inhibitors, Figure 1; cited from earlier work
T1 construct: purchased Sino Biological Inc., Beijing, China

tumor cells = system: tumor cells; set-up: method as in PMID 19729306, PMID 20207139, PMID 25091930; conditions: result in words; cited from earlier work
PC-3 cells = assay: In vitro anti-proliferative MTT assay; format: cell-based, human; conditions: for GI50: Homo sapiens, PC-3 cells, MTT, 96 h
Experimental: As for Pin1 was overexpressed in human prostate cancer cells, the antiproliferative activity of these benzimidazole derivatives against PC-3 cells were further evaluated by MTT assay. Meanwhile, the polar surface area (PSA) of these compounds was calculated under the optimal conformation since PSA is the key indicator of membrane permeability.
The tested cells were plated in 96-well microtiter plates with a density of 2,000 cells/well and incubated in a humidified atmosphere with 5% CO2 at 37 °C for 24 h. The cells were then exposed to tested compounds of different concentrations in triplicate. After incubated for 96 h, 50 μL of 3-(4,5-dimethylthiazol-2-yl)-2,5-diphenyltetrazolium bromide (MTT) solution (2 mg/mL) was added to each well and incubated for an additional 4 h. Then the suspernatant was discarded and the fromazan was dissolved in 200 μL of dimethyl sulfoxide (DMSO). The plate was oscillated subtly at room temperature for 10 min before the absorbance was measured at 570 nm by a microplate reader. Cell inhibitory ratio was calculated with the following formula:Inhibitory Rate (%) = [(Acontrol − Atreated)/Acontrol] × 100%(1)
The GI50 was determined as the concentration that caused half inhibition of cell proliferation. All experiments were performed three times independently, and the results were reported presented as the mean.

Pin1 [3] = biological target: T1, Pin1; assay: Pin1 inhibition, protease-coupled assay; format: biochemical; conditions: 10 °C; for inhibition at 10 µM: Pin1, compound at 10 μM
Experimental: To investigate the Pin1 inhibitory potency of all synthesized compounds, the inhibition ratio at 10 μM or IC50 of all synthesized compounds was determined using protease-coupled assay.
Pin1 inhibitory activities were measured at 10 °C by protease-coupled assay as reported previous. Suc-Ala-Glu-cis-Pro-Phe-4-nitroaniline (Bachem, Bubendorf, Switzerland) in 0.47 mol/L, LiCl/trifluoroethanol was used as the substrate. The assay buffer (860 μL of 35 mM HERES at pH 7.8), Pin1 (20 μL, Bought from Sino Biological Inc., Beijing, China) and target compounds (10 μL of varying comcentrations in DMSO) were pre-equilibtated in the cuvette at 10 °C for 30 min. Then, 150 uL of ice-cooled chymotrypsin (60 mg/mL in 0.001 M/HCl) was added and mixed immediately. Additional substrate (40 μL) was added to start the assay and the reaction was monitored by absorbance at 390 nm for 90 s. For each compound, four concentrations (10 μM, 3.3 μM, 1.1 μM, 0.37 μM) were chosen, and the assay was performed in duplicate. The data was analyzed by Graphpad Prism 6.0.

T1 sequence (Q13526 whole entry): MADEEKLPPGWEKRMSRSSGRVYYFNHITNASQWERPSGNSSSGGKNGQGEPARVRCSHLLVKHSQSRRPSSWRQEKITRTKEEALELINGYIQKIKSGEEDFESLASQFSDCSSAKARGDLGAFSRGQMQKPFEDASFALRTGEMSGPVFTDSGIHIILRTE

Compound | GI50 (PC-3 cells) | melting point | inhibition at 10 µM (Pin1 [3]) | also measured
CC1=C(/C=C/C(C)=C/C=C/C(C)=C/C(=O)O)C(C)(C)CCC1 [ATRA, all-trans retinoic acid] |  |  |  | half-life [1]: 45 min
Nc1nc(OCc2ccc(CNC(=O)C(F)(F)F)cc2)c2nc[nH]c2n1 [API-1] |  |  |  | IC50 (Pin1 [2]): 0.07 µM
O=Cc1nc2ccccc2[nH]1 [Compound 2] |  |  |  | antiproliferative activities against tumor cells (tumor cells): did not exhibit antiproliferative activities
O=C(O)CCc1nc2ccccc2n1CCC(=O)Nc1ccc(Cl)cc1 [Compound 7b, 3-(1-(3-((4-Chlorophenyl)amino)-3-oxopropyl)-1H-benzo[d]imidazol-2-yl)propanoic acid] | > 50 µM | 66 to 68 °C | 31% | 
COc1cccc(NC(=O)CCn2c(-c3nc(C(=O)O)cs3)nc3ccccc32)c1 [Compound 13d, 2-(1-(3-((3-Methoxyphenyl)amino)-3-oxopropyl)-1H-benzo[d]imidazol-2-yl)thiazole-4-carboxylic acid] | > 50 µM | 223 to 225 °C | 75% | 
O=C(O)/C=C/c1nc2ccccc2n1CCC(=O)Nc1ccc(Br)cc1 [Compound 6g, (E)-3-(1-(3-((4-Bromophenyl)amino)-3-oxopropyl)-1H-benzo[d]imidazol-2-yl)acrylic acid] | 14.1 µM | 192 to 194 °C | 66% | antiproliferative activity against human prostate cancer PC-3 cells (PC-3 cells; result in words): moderate antiproliferative activity; IC50 (Pin1 [3]; Pin1, protease-coupled assay): 1.73 µM
O=C(O)/C=C/c1nc2ccccc2n1CCC(=O)NCCc1ccc(Br)cc1 [Compound 6k, (E)-3-(1-(3-((4-Bromophenethyl)amino)-3-oxopropyl)-1H-benzo[d]imidazol-2-yl)acrylic acid] | > 50 µM | 203 to 205 °C | 62% | 
O=C(O)/C=C/c1nc2ccccc2n1CCC(=O)Nc1ccc(Cl)cc1 [Compound 6f, (E)-3-(1-(3-((4-Chlorophenyl)amino)-3-oxopropyl)-1H-benzo[d]imidazol-2-yl)acrylic acid] | > 50 µM | 158 to 160 °C | 54% | 

Reference: article PMC6479814, “Structure-Based Design of Novel Benzimidazole Derivatives as Pin1 Inhibitors” (Molecules, 2019)
